Measurements: patent US7763602B2, “Pyrrole derivatives as antimycobacterial compounds” (priority 2002, dated 2010)
Converted amounts (≈) assume the structure as drawn. Where two headings read alike, the source gives them in different places.

System: M. tuberculosis clinical isolates, resistant
Assay: microbe, parasite or virus in culture
Type: cell-based, Mycobacterium tuberculosis
Details: for MIC: Mycobacterium tuberculosis; for MIC (μg/ml) against Clinical isolates Resistant: Table I, agar dilution
[1] = read-out: MIC (μg/ml) against Clinical isolates Resistant
[2] = read-out: MIC (μg/ml) M. tuberculosis Resistant (n = 26)

Compound | MIC [1] [µg/mL] | MIC [2] [µg/mL] | MIC (μg/ml) against Clinical isolates Resistant [µg/mL]
Cc1c(CN2CCN(c3ccc(F)cc3)CC2)cc(-c2ccc(Cl)cc2)n1-c1ccc(Cl)cc1 [Compound No. 1, 1-{[1,5-bis(4-chlorophenyl)-2-methylpyrrol-3-yl]methyl}-4-(4-fluorophenyl) piperazine] | 2 to 4 (≈ 4.04 to 8.09 µM) | – | –
COc1ccccc1N1CCN(Cc2cc(-c3ccc(Cl)cc3)n(-c3ccc(Cl)cc3)c2C)CC1 [Compound No. 2, 1-{[1,5-bis(4-chlorophenyl)-2-methylpyrrol-3-yl]methyl}-4-(2-methoxyphenyl) piperazine] | 0.25 to 1 (≈ 0.494 to 1.97 µM) | 0.25 to 1 (≈ 0.494 to 1.97 µM) | –
Cc1c(CN2CCN(Cc3ccc4c(c3)OCO4)CC2)cc(-c2ccc(Cl)cc2)n1-c1ccc(Cl)cc1 [Compound No. 8, 5-[(4-{[1,5-bis(4-chlorophenyl)-2-methylpyrrol-3-yl]methyl}piperazinyl)methyl]-2H-benzo[d]1,3-dioxolane] | – | – | 1.0 to 4.0
Cc1c(CN2CCN(c3cccc(C(F)(F)F)c3)CC2)cc(-c2ccccc2)n1NC(=O)c1ccncc1 [Compound No. 12, N-(3-{[4-(3-trifluoromethylphenyl)piperazinyl]methyl}-2-methyl-5-phenylpyrrolyl)-4-pyridylcarboxamide] | – | – | 0.5 to 1.0
Cc1cc(CN2CCN(c3cccc(C(F)(F)F)c3)CC2)c(-c2ccccc2)n1NC(=O)c1ccncc1 [Compound No. 23, N-(3-{[4-(3-trifluoromethylphenyl)piperazinyl]methyl}-5-methyl-2-phenylpyrrolyl)-4-pyridylcarboxamide] | – | – | 0.25 to 1.0
CO[C@H]1/C=C/O[C@@]2(C)Oc3c(C)c(O)c4c(O)c(c(/C=N/N5CCN(C)CC5)c(O)c4c3C2=O)NC(=O)/C(C)=C\C=C\[C@H](C)[C@H](O)[C@@H](C)[C@@H](O)[C@@H](C)[C@H](OC(C)=O)[C@@H]1C [Rifampicin, reference compound] | 4 to 16 (≈ 4.86 to 19.4 µM) | – | –
Cc1c(CN2CCN(c3ccccn3)CC2)cc(-c2ccc(Cl)cc2)n1-c1ccc(Cl)cc1 [compound 4, 1-{[1,5-bis(4-chlorophenyl)-2-methylpyrrol-3-yl]methyl}-4-(2-pyridyl) piperazine] | 0.5 to 4 (≈ 1.05 to 8.38 µM) | – | –
Cc1c(CN2CCN(c3ncccn3)CC2)cc(-c2ccc(Cl)cc2)n1-c1ccc(Cl)cc1 [compound 5, 1-{[1,5-bis(4-chlorophenyl)-2-methylpyrrol-3-yl]methyl}-4-(2-pyrimidyl) piperazine] | 0.5 to 2 (≈ 1.05 to 4.18 µM) | 1 to 2 (≈ 2.09 to 4.18 µM) | –
Cc1c(CN2CCN(C(=O)c3ccco3)CC2)cc(-c2ccc(Cl)cc2)n1-c1ccc(Cl)cc1 [compound 7, 4-{[1,5-bis(4-chlorophenyl)-2-methylpyrrol-3-yl]methyl}piperazinyl-2-furyl-ketone] | – | – | 2.0 to 4.0
Cc1ccc(Cl)cc1N1CCN(Cc2cc(-c3ccc(Cl)cc3)n(-c3ccc(Cl)cc3)c2C)CC1 [compound 10, 1-{[1,5-bis(4-chlorophenyl)-2-methylpyrrol-3-yl]methyl}-4-(5-chloro-2-methylphenyl) piperazine] | 1 to 4 (≈ 1.91 to 7.62 µM) | – | –
Cc1c(CN2CCN(c3ccc(F)cc3)CC2)cc(-c2ccccc2)n1NC(=O)c1ccncc1 [compound 11, N-(3-{[4-(4-fluorophenyl)piperazinyl]methyl}-2-methyl-5-phenylpyrrolyl)-4-pyridylcarboxamide] | – | – | 0.5 to 2.0
COc1ccccc1N1CCN(Cc2cc(-c3ccccc3)n(NC(=O)c3ccncc3)c2C)CC1 [compound 13, N-(3-{[4-(2-methoxyphenyl)piperazinyl]methyl}-2-methyl-5-phenylpyrrolyl)-4-pyridylcarboxamide] | – | – | 1.0 to 2.0
Cc1c(CN2CCN(c3ccccn3)CC2)cc(-c2ccccc2)n1NC(=O)c1ccncc1 [compound 14, N-(3-{[4-(2-pyridyl)piperazinyl]methyl}-2-methyl-5-phenylpyrrolyl)-4-pyridylcarboxamide] | – | – | 4.0 to 8.0
Cc1c(CN2CCN(Cc3ccccc3)CC2)cc(-c2ccccc2)n1NC(=O)c1ccncc1 [compound 15, N-(2-methyl-5-phenyl-3-{[4-benzylpiperazinyl]methyl}pyrrolyl)-4-pyridylcarboxamide] | – | – | 4.0 to 8.0
Cc1c(CN2CCN(C)CC2)cc(-c2ccccc2)n1NC(=O)c1ccncc1 [compound 16, N-{2-methyl-3-[(4-methylpiperazinyl)methyl]-5-phenylpyrrolyl}-4-pyridylcarboxamide] | – | – | 4.0 to 16.0
Cc1c(CN2CCN(Cc3ccc4c(c3)OCO4)CC2)cc(-c2ccccc2)n1NC(=O)c1ccncc1 [compound 17, N-(3-{[4-(2H-benzo[d]1,3-dioxolan-5-ylmethyl)piperazinyl]methyl}-2-methyl-5-phenylpyrrolyl)-4-pyridylcarboxamide] | – | – | 4.0 to 8.0
Cc1c(CN2CCCC2)cc(-c2ccccc2)n1NC(=O)c1ccncc1 [compound 19, N-[2-methyl-5-phenyl-3-(pyrrolidinylmethyl)pyrrolyl]-4-pyridylcarboxamide] | – | – | >16.0

Compound | MIC [1] [µg/mL] | MIC [2] [µg/mL] | MIC (μg/ml) against Clinical isolates Resistant [µg/mL]
Cc1c(CN2CCSCC2)cc(-c2ccccc2)n1NC(=O)c1ccncc1 [compound 21, N-[2-methyl-5-phenyl-3-(1,4-thiazaperhydroin-4-ylmethyl)pyrrolyl]-4-pyridyl carboxamide] | – | – | 1.0 to 4.0
Cc1c(CN2CCN(c3ccc(F)cc3)CC2)cc(-c2ccccc2)n1NC(=O)c1cnccn1 [compound 25, N-(3-{[4-(4-fluorophenyl)piperazinyl]methyl}-2-methyl-5-phenylpyrrolyl)pyrazin-2-ylcarboxamide] | – | – | 4.0 (≈ 8.5 µM)
COc1ccccc1N1CCN(Cc2cc(-c3ccccc3)n(NC(=O)c3cnccn3)c2C)CC1 [compound 26, N-(3-{[4-(2-methoxyphenyl)piperazinyl]methyl}-2-methyl-5-phenylpyrrolyl) pyrazin-2-ylcarboxamide] | – | – | 4.0 to 16.0
Cc1c(CN2CCN(c3cccc(C(F)(F)F)c3)CC2)cc(-c2ccccc2)n1NC(=O)c1cnccn1 [compound 27, N-(3-{[4-(3-trifluoromethylphenyl)piperazinyl]methyl}-2-methyl-5-phenylpyrrolyl)pyrazin-2-ylcarboxamide] | – | – | 8.0 (≈ 15.4 µM)
Cc1c(CN2CCN(c3ccccn3)CC2)cc(-c2ccccc2)n1NC(=O)c1cnccn1 [compound 28, N-(3-{[4-(2-pyridyl)piperazinyl]methyl}-2-methyl-5-phenylpyrrolyl)pyrazin-2-ylcarboxamide] | – | – | 4.0 to 16.0
Cc1c(CN2CCN(Cc3ccc4c(c3)OCO4)CC2)cc(-c2ccccc2)n1NC(=O)c1cnccn1 [compound 29, N-(3-{[4-(2H-benzo[d]1,3-dioxolen-5-ylmethyl)piperazinyl]methyl}-2-methyl-5-phenylpyrrolyl)pyrazin-2-ylcarboxamide] | – | – | >16.0
Cc1c(CN2CCN(C(c3ccccc3)c3ccccc3)CC2)cc(-c2ccccc2)n1NC(=O)c1cnccn1 [compound 30, N-(3-{[4-(diphenylmethyl)piperazinyl]methyl}-2-methyl-5-phenylpyrrolyl)-pyrazin-2-ylcarboxamide] | – | – | 4.0 to 16.0
COc1ccccc1N1CCN(Cc2cc(C)n(NC(=O)c3cnccn3)c2-c2ccccc2)CC1 [compound 32, N-(3-{[4-(2-methoxyphenyl)piperazinyl]methyl}-5-methyl-2-phenylpyrrolyl) pyrazin-2-ylcarboxamide] | – | – | >16.0
Cc1cc(CN2CCN(c3cccc(C(F)(F)F)c3)CC2)c(-c2ccccc2)n1NC(=O)c1cnccn1 [compound 33, N-(3-{[4-(3-trifluoromethylphenyl)piperazinyl]methyl}-5-methyl-2-phenylpyrrolyl)pyrazin-2-ylcarboxamide] | – | – | 4.0 to 8.0
Cc1cc(CN2CCN(c3ccccn3)CC2)c(-c2ccccc2)n1NC(=O)c1cnccn1 [compound 34, N-(3-{[4-(2-pyridyl)piperazinyl]methyl}-5-methyl-2-phenylpyrrolyl)pyrazin-2-ylcarboxamide] | – | – | >16.0
Cc1cc(CN2CCN(Cc3ccc4c(c3)OCO4)CC2)c(-c2ccccc2)n1NC(=O)c1cnccn1 [compound 35, N-(3-{[4-(2H-benzo[3,4-d]1,3-dioxolan-5-ylmethyl)piperazinyl]methyl}-5-methyl-2-phenylpyrrolyl)pyrazin-2-ylcarboxamide] | – | – | >16.0
Cc1cc(CN2CCN(C(c3ccccc3)c3ccccc3)CC2)c(-c2ccccc2)n1NC(=O)c1cnccn1 [compound 36, N-(3-{[4-(diphenylmethyl)piperazinyl]methyl}-5-methyl-2-phenylpyrrolyl) pyrazin-2-ylcarboxamide] | – | – | 1.0 to 4.0
COc1ccccc1N1CCN(Cc2cc(-c3ccc(Cl)cc3)n(NC(=O)c3cnccn3)c2C)CC1 [compound 38, N-(5-(4-chlorophenyl)-3-{[4-(2-methoxyphenyl)piperazinyl]methyl}-2-methylpyrrolyl)pyrazin-2-ylcarboxamide] | – | – | >16.0
Cc1cc(CN2CCN(c3ccc(F)cc3)CC2)c(-c2ccc(Cl)cc2)n1NC(=O)c1cnccn1 [compound 41, N-(2-(4-chlorophenyl)-3-{[4-(4-fluorophenyl)piperazinyl]methyl}-5-methylpyrrolyl)pyrazin-2-ylcarboxamide] | – | – | >16.0
Cc1cc(CN2CCN(c3cccc(C(F)(F)F)c3)CC2)c(-c2ccc(Cl)cc2)n1NC(=O)c1cnccn1 [compound 43, N-(2-(4-chlorophenyl)-3-{[4-(3-trifluoromethylphenyl)piperazinyl]methyl}-5-methylpyrrolyl)pyrazin-2-ylcarboxamide] | – | – | >16.0
Cc1c(CN2CCN(c3ccc(F)cc3)CC2)cc(-c2ccc(Cl)cc2)n1-c1ccc(F)cc1F [compound 44, 1-{[1-(2,4-difluorophenyl)-5-(4-chlorophenyl)-2-methylpyrrol-3-yl]methyl}-4-(4-fluorophenyl)piperazine] | 2 to 4 (≈ 4.03 to 8.06 µM) | – | –
